Laboratory results: patent publication EP1285920A1, “C10 Ester sustituted taxanes as antitumor agents” (Florida State University Research Foundation, Inc., priority 2001, dated 2003)

Each compound was assayed on HCT116 (assay: In Vitro cytotoxicity measured by the cell colony formation assay). Conditions: Homo sapiens, HCT-116; read-out: IN VITRO ID 50 HCT116.
Assay type: cell-based, human
Description: Four hundred cells (HCT116) were plated in 60 mm Petri dishes containing 2.7 mL of medium (modified McCoy's 5a medium containing 10% fetal bovine serum and 100 units/mL penicillin and […] streptomycin). The cells were incubated in a CO2 incubator at 37 °C for 5 h for attachment to the bottom of Petri dishes. The compounds identified in Example 2 were made up fresh in medium at ten times the final concentration, and then 0.3 mL of this stock solution was added to the 2.7 mL of medium in the dish. The cells were then incubated with drugs for 72 h at 37 °C. At the end of incubation the drug-containing media were decanted, the dishes were rinsed with 4 mL of Hank's Balance Salt Solution (HBSS), 5 mL of fresh medium was added, and the dishes were returned to the incubator for colony formation. The cell colonies were counted using a colony counter after incubation for 7 days.

Structure (SMILES) | IC50
CC(=O)OC12COC1CC(O)C1(C)C(=O)C(OC(=O)C(C)C)C3=C(C)C(OC(=O)C(O)C(NC(=O)OC(C)(C)C)C4CCC4)CC(O)(C(OC(=O)c4ccccc4)C21)C3(C)C (stereo not shown) [Compound 2319] | < 10 nM
CCCC(=O)O[C@H]1C(=O)[C@@]2(C)[C@H]([C@H](OC(=O)c3ccccc3)[C@]3(O)C[C@H](OC(=O)[C@H](O)[C@@H](NC(=O)C=C(C)C)c4cccs4)C(C)=C1C3(C)C)[C@]1(OC(C)=O)CO[C@@H]1C[C@@H]2O [Compound 4344] | < 1 nM
CC(=O)OC12COC1CC(O)C1(C)C(=O)C(OC(=O)C(C)C)C3=C(C)C(OC(=O)C(O)C(NC(=O)OC(C)(C)C)c4ccoc4)CC(O)(C(OC(=O)c4ccccc4)C21)C3(C)C (stereo not shown) [Compound 2273] | < 1 nM
CCOC(=O)N[C@@H](c1ccco1)[C@@H](O)C(=O)O[C@H]1C[C@@]2(O)[C@@H](OC(=O)c3ccccc3)[C@@H]3[C@]4(OC(C)=O)CO[C@@H]4C[C@H](O)[C@@]3(C)C(=O)[C@H](OC(=O)CC)C(=C1C)C2(C)C [Compound 3535] | < 1 nM
CC(=O)O[C@@]12CO[C@@H]1C[C@H](O)[C@@]1(C)C(=O)[C@H](OC(=O)c3ccco3)C3=C(C)[C@@H](OC(=O)[C@H](O)[C@H](C=C(C)C)NC(=O)OC(C)(C)C)C[C@@](O)([C@@H](OC(=O)c4ccccc4)[C@H]21)C3(C)C [Compound 2101] | < 1 nM
CCCC(=O)O[C@H]1C(=O)[C@@]2(C)[C@H]([C@H](OC(=O)c3ccccc3)[C@]3(O)C[C@H](OC(=O)[C@H](O)[C@@H](NC(=O)OC(C)C)c4ccco4)C(C)=C1C3(C)C)[C@]1(OC(C)=O)CO[C@@H]1C[C@@H]2O [Compound 3417] | < 1 nM
CCCC(=O)O[C@H]1C(=O)[C@@]2(C)[C@H]([C@H](OC(=O)c3ccccc3)[C@]3(O)C[C@H](OC(=O)[C@H](O)[C@@H](NC(=O)OC(C)(C)C)C4CCC4)C(C)=C1C3(C)C)[C@]1(OC(C)=O)CO[C@@H]1C[C@@H]2O [Compound 1044] | < 1 nM
CC(=O)O[C@@]12CO[C@@H]1C[C@H](O)[C@@]1(C)C(=O)[C@H](OC(=O)C3CC3)C3=C(C)[C@@H](OC(=O)[C@H](O)[C@@H](NC(=O)OC(C)(C)C)c4ccccn4)C[C@@](O)([C@@H](OC(=O)c4ccccc4)[C@H]21)C3(C)C [Compound 2802] | < 1 nM
C/C=C/C(=O)N[C@@H](c1ccoc1)[C@@H](O)C(=O)O[C@H]1C[C@@]2(O)[C@@H](OC(=O)c3ccccc3)[C@@H]3[C@]4(OC(C)=O)CO[C@@H]4C[C@H](O)[C@@]3(C)C(=O)[C@H](OC(=O)CC)C(=C1C)C2(C)C [Compound 4888] | < 1 nM
CCCC(=O)O[C@H]1C(=O)[C@@]2(C)[C@H]([C@H](OC(=O)c3ccccc3)[C@]3(O)C[C@H](OC(=O)[C@H](O)[C@@H](NC(=O)c4cccs4)c4cccs4)C(C)=C1C3(C)C)[C@]1(OC(C)=O)CO[C@@H]1C[C@@H]2O [Compound 3408] | < 1 nM
CC(=O)O[C@@]12CO[C@@H]1C[C@H](O)[C@@]1(C)C(=O)[C@H](OC(=O)c3ccco3)C3=C(C)[C@@H](OC(=O)[C@H](O)[C@@H](NC(=O)OC(C)(C)C)c4ccoc4)C[C@@](O)([C@@H](OC(=O)c4ccccc4)[C@H]21)C3(C)C [Compound 2159] | < 1 nM
CC(=O)O[C@@]12CO[C@@H]1C[C@H](O)[C@@]1(C)C(=O)[C@H](OC(=O)C3CC3)C3=C(C)[C@@H](OC(=O)[C@H](O)[C@@H](NC(=O)OC(C)(C)C)c4ccco4)C[C@@](O)([C@@H](OC(=O)c4ccccc4)[C@H]21)C3(C)C [Compound 0843] | < 1 nM
CC(=O)O[C@@]12CO[C@@H]1C[C@H](O)[C@@]1(C)C(=O)[C@H](OC(=O)C3CC3)C3=C(C)[C@@H](OC(=O)[C@H](O)[C@@H](NC(=O)c4ccccc4)c4ccoc4)C[C@@](O)([C@@H](OC(=O)c4ccccc4)[C@H]21)C3(C)C [Compound 2826] | < 1 nM
CC(=O)OC12COC1CC(O)C1(C)C(=O)C(OC(=O)C3CC3)C3=C(C)C(OC(=O)C(O)C(NC(=O)OCC(C)C)c4ccsc4)CC(O)(C(OC(=O)c4ccccc4)C21)C3(C)C (stereo not shown) [Compound 5011] | < 10 nM
CC(=O)O[C@@]12CO[C@@H]1C[C@H](O)[C@@]1(C)C(=O)[C@H](OC(=O)C3CC3)C3=C(C)[C@@H](OC(=O)[C@H](O)[C@@H](NC(=O)c4ccccc4)c4ccccn4)C[C@@](O)([C@@H](OC(=O)c4ccccc4)[C@H]21)C3(C)C [Compound 2844] | < 10 nM
CC(=O)O[C@@]12CO[C@@H]1C[C@H](O)[C@@]1(C)C(=O)[C@H](OC(=O)c3cccs3)C3=C(C)[C@@H](OC(=O)[C@H](O)[C@@H](NC(=O)OC(C)(C)C)c4cccnc4)C[C@@](O)([C@@H](OC(=O)c4ccccc4)[C@H]21)C3(C)C [Compound 1948] | < 10 nM
CC(=O)OC12COC1CC(O)C1(C)C(=O)C(OC(=O)C(C)C)C3=C(C)C(OC(=O)C(O)C(NC(=O)OC(C)(C)C)C(C)C)CC(O)(C(OC(=O)c4ccccc4)C21)C3(C)C (stereo not shown) [Compound 2306] | < 10 nM

Structure (SMILES) | IC50
CC(=O)O[C@@]12CO[C@@H]1C[C@H](O)[C@@]1(C)C(=O)[C@H](OC(=O)c3cccs3)C3=C(C)[C@@H](OC(=O)[C@H](O)[C@@H](NC(=O)OC(C)(C)C)c4ccccn4)C[C@@](O)([C@@H](OC(=O)c4ccccc4)[C@H]21)C3(C)C [Compound 1883] | < 10 nM
CC(=O)OC12COC1CC(O)C1(C)C(=O)C(OC(=O)C(C)C)C3=C(C)C(OC(=O)C(O)C(NC(=O)OC(C)(C)C)c4ccccn4)CC(O)(C(OC(=O)c4ccccc4)C21)C3(C)C (stereo not shown) [Compound 2238] | < 1 nM
CCCC(=O)OC1C(=O)C2(C)C(O)CC3OCC3(OC(C)=O)C2C(OC(=O)c2ccccc2)C2(O)CC(OC(=O)C(O)C(C=C(C)C)NC(=O)OCC(C)C)C(C)=C1C2(C)C (stereo not shown) [Compound 5144] | < 10 nM
CC(=O)O[C@@]12CO[C@@H]1C[C@H](O)[C@@]1(C)C(=O)[C@H](OC(=O)C3CC3)C3=C(C)[C@@H](OC(=O)[C@H](O)[C@H](C=C(C)C)NC(=O)OCC(C)C)C[C@@](O)([C@@H](OC(=O)c4ccccc4)[C@H]21)C3(C)C [Compound 4720] | < 10 nM
CC(=O)O[C@@]12CO[C@@H]1C[C@H](O)[C@@]1(C)C(=O)[C@H](OC(=O)C=C(C)C)C3=C(C)[C@@H](OC(=O)[C@H](O)[C@@H](NC(=O)OC(C)(C)C)c4ccsc4)C[C@@](O)([C@@H](OC(=O)c4ccccc4)[C@H]21)C3(C)C [Compound 2511] | < 1 nM
CC(=O)O[C@@]12CO[C@@H]1C[C@H](O)[C@@]1(C)C(=O)[C@H](OC(=O)C3CC3)C3=C(C)[C@@H](OC(=O)[C@H](O)[C@@H](NC(=O)c4ccccc4)c4ccc([N+](=O)[O-])cc4)C[C@@](O)([C@@H](OC(=O)c4ccccc4)[C@H]21)C3(C)C [Compound 2869] | < 10 nM
CCCC(=O)O[C@H]1C(=O)[C@@]2(C)[C@H]([C@H](OC(=O)c3ccccc3)[C@]3(O)C[C@H](OC(=O)[C@H](O)[C@@H](NC(=O)OC(C)(C)C)c4ccncc4)C(C)=C1C3(C)C)[C@]1(OC(C)=O)CO[C@@H]1C[C@@H]2O [Compound 0978] | < 1 nM
CCCC(=O)O[C@H]1C(=O)[C@@]2(C)[C@H]([C@H](OC(=O)c3ccccc3)[C@]3(O)C[C@H](OC(=O)[C@H](O)[C@@H](NC(=O)c4ccccc4)c4ccco4)C(C)=C1C3(C)C)[C@]1(OC(C)=O)CO[C@@H]1C[C@@H]2O [Compound 3204] | < 1 nM
CCCC(=O)O[C@H]1C(=O)[C@@]2(C)[C@H]([C@H](OC(=O)c3ccccc3)[C@]3(O)C[C@H](OC(=O)[C@H](O)[C@@H](NC(=O)OCC(C)C)c4cccs4)C(C)=C1C3(C)C)[C@]1(OC(C)=O)CO[C@@H]1C[C@@H]2O [Compound 3265] | < 10 nM
CCC(=O)O[C@H]1C(=O)[C@@]2(C)[C@H]([C@H](OC(=O)c3ccccc3)[C@]3(O)C[C@H](OC(=O)[C@H](O)[C@@H](NC(=O)c4cccs4)c4ccco4)C(C)=C1C3(C)C)[C@]1(OC(C)=O)CO[C@@H]1C[C@@H]2O [Compound 3644] | < 1 nM
CC(=O)O[C@@]12CO[C@@H]1C[C@H](O)[C@@]1(C)C(=O)[C@H](OC(=O)C3CC3)C3=C(C)[C@@H](OC(=O)[C@H](O)[C@@H](NC(=O)c4ccccc4)c4ccsc4)C[C@@](O)([C@@H](OC(=O)c4ccccc4)[C@H]21)C3(C)C [Compound 2838] | < 1 nM
CCC(=O)O[C@H]1C(=O)[C@@]2(C)[C@H]([C@H](OC(=O)c3ccccc3)[C@]3(O)C[C@H](OC(=O)[C@H](O)[C@@H](NC(=O)OC(C)C)c4cccs4)C(C)=C1C3(C)C)[C@]1(OC(C)=O)CO[C@@H]1C[C@@H]2O [Compound 3361] | < 1 nM
CCC(=O)O[C@H]1C(=O)[C@@]2(C)[C@H]([C@H](OC(=O)c3ccccc3)[C@]3(O)C[C@H](OC(=O)[C@H](O)[C@@H](NC(=O)OC(C)(C)C)c4ccc([N+](=O)[O-])cc4)C(C)=C1C3(C)C)[C@]1(OC(C)=O)CO[C@@H]1C[C@@H]2O [Compound 0602] | < 1 nM
CC(=O)O[C@@]12CO[C@@H]1C[C@H](O)[C@@]1(C)C(=O)[C@H](OC(=O)c3ccco3)C3=C(C)[C@@H](OC(=O)[C@H](O)[C@@H](NC(=O)OC(C)(C)C)c4ccncc4)C[C@@](O)([C@@H](OC(=O)c4ccccc4)[C@H]21)C3(C)C [Compound 2132] | < 1 nM
CCCC(=O)O[C@H]1C(=O)[C@@]2(C)[C@H]([C@H](OC(=O)c3ccccc3)[C@]3(O)C[C@H](OC(=O)[C@H](O)[C@@H](NC(=O)c4ccco4)c4ccco4)C(C)=C1C3(C)C)[C@]1(OC(C)=O)CO[C@@H]1C[C@@H]2O [Compound 3686] | < 1 nM
CCCC(=O)O[C@H]1C(=O)[C@@]2(C)[C@H]([C@H](OC(=O)c3ccccc3)[C@]3(O)C[C@H](OC(=O)[C@H](O)[C@@H](NC(=O)OC(C)(C)C)C4CC4)C(C)=C1C3(C)C)[C@]1(OC(C)=O)CO[C@@H]1C[C@@H]2O [Compound 1020] | < 1 nM
CC=CC(=O)NC(c1ccsc1)C(O)C(=O)OC1CC2(O)C(OC(=O)c3ccccc3)C3C4(OC(C)=O)COC4CC(O)C3(C)C(=O)C(OC(=O)C3CC3)C(=C1C)C2(C)C (stereo not shown) [Compound 5040] | < 1 nM
